This note sets out measurements from US20240148821A1, “PHARMACEUTICAL USE OF CYCLIC PEPTIDE COMPOUND” (CHUGAI SEIYAKU KABUSHIKI KAISHA, priority 2021, published 2024).

Bridge positions count the residues as written; N and C are the ends. Square brackets hold non-standard residues; d marks the D form. Peptide text beside a SMILES is read from it. * marks the point of attachment. hPhe(3-Cl-4-CF3) = N[C@@H](CCc1ccc(C(F)(F)F)c(Cl)c1)C(=O)O; hPhe(3-F,4-CF3) = N[C@@H](CCc1ccc(C(F)(F)F)c(F)c1)C(=O)O; NMePhe(4-Cl) = CN[C@@H](Cc1ccc(Cl)cc1)C(=O)O; NMePhe(2-OMe) = CN[C@@H](Cc1ccccc1OC)C(=O)O; NMePhe(3-Me) = CN[C@@H](Cc1cccc(C)c1)C(=O)O; NMePhe(4-F) = CN[C@@H](Cc1ccc(F)cc1)C(=O)O; NMeGly(cPent) = CN[C@H](C(=O)O)C1CCCC1; Phe(3-I) = N[C@@H](Cc1cccc(I)c1)C(=O)O; Pro(4,4-F2) = O=C(O)[C@@H]1CC(F)(F)CN1; NMeCha = CN[C@@H](CC1CCCCC1)C(=O)O; NMeD = CN[C@@H](CC(=O)O)C(=O)O; CH2CONHtBu = CC(C)(C)NC(=O)C*; NMeL = CN[C@@H](CC(C)C)C(=O)O; NMeV = CN[C@H](C(=O)O)C(C)C; d(β3hA) = C[C@@H](N)CC(=O)O; NMeS = CN[C@@H](CO)C(=O)O; NMeA = CN[C@@H](C)C(=O)O; Nle = CCCC[C@H](N)C(=O)O; Piperidide = C1CCN(*)CC1; Pyrrolidide = C1CCN(*)C1; Ac5c = NC1(C(=O)O)CCCC1; NBuGly = CCCCNCC(=O)O; Aib = CC(C)(N)C(=O)O; Isopentyl = CC(C)CC*; Sar = CNCC(=O)O

In the experiment the test system is Human pancreatic cancer cell line AsPC-1 (G12D mutation Kras). As to the kind of experiment: AsPC-1 cell growth inhibition (AsPC-1 CGI). As to conditions: read-out: AsPC-1 cell growth inhibition, 50% growth inhibitory concentration (IC50 value); 96 hours, CellTiter-Glo, values classified in ranges. It counts as cell-based. A general note: Cellular ATP, detected with luciferase, serves as a proxy for viable cell number.
Description: Test compounds were serially dilated with dimethyl sulfoxide, and 200 nL was then dispensed to a U-bottom 96-well plate using Labcyte Echo. […] The cell suspension was dispensed to a. plate containing a test compound at 100 μL per well and incubated at 37° C. in a 5% carbon dioxide gas incubator. 96 hours later, 80 μL of CellTiter-Glo (Promega) was added to each well and fluorescence was measured.
In the case of `CC[C@H](C)[C@@H]1NC(=O)[C@H](CC(C)C)N(C)C(=O)C[C@@H](C)NC(=O)[C@H](C(C)C)N(C)C(=O)C2(CCCC2)NC(=O)[C@@H]2CCCN2C(=O)[C@H](CCc2ccc(C(F)(F)F)c(Cl)c2)NC(=O)CN(C)C(=O)[C@H](Cc2cccc(C)c2)N(C)C(=O)CN(C)C(=O)CN(C)C1=O` [Compound 1547] (cyclo([Ac5c][NMeV][d(β3hA)][NMeL]I[Sar][Sar][NMePhe(3-Me)][Sar][hPhe(3-Cl-4-CF3)]P)), the IC50 is over 500 nM.
Then `CC[C@H](C)[C@@H]1NC(=O)[C@H](CC(C)C)N(C)C(=O)C[C@@H](C(=O)N2CCCC2)N(C)C(=O)[C@H](C2CCCC2)N(C)C(=O)C2(CCCC2)NC(=O)[C@@H]2CC(F)(F)CN2C(=O)[C@H](CCc2ccc(C(F)(F)F)c(Cl)c2)NC(=O)CN(C)C(=O)[C@H](CC2CCCCC2)N(C)C(=O)CN(C)C(=O)CN(C)C1=O` [Compound 1270] ([NMeL]I[Sar][Sar][NMeCha][Sar][hPhe(3-Cl-4-CF3)][Pro(4,4-F2)][Ac5c][NMeGly(cPent)][NMeD]-Pyrrolidide; lactam N-11), with at most 20 nM; and `CC[C@H](C)[C@@H]1NC(=O)[C@H](CC(C)C)N(C)C(=O)C[C@@H](C)NC(=O)[C@H](CC(C)C)N(C)C(=O)C2(CCCC2)NC(=O)[C@@H]2CC(F)(F)CN2C(=O)[C@H](CCc2ccc(C(F)(F)F)c(F)c2)NC(=O)CN(C)C(=O)[C@H](CC2CCCCC2)N(C)C(=O)CN(C)C(=O)CN(C)C1=O` [Compound 1509] (cyclo([Ac5c][NMeL][d(β3hA)][NMeL]I[Sar][Sar][NMeCha][Sar][hPhe(3-F,4-CF3)][Pro(4,4-F2)])), with over 500 nM; and `CC[C@H](C)[C@@H]1NC(=O)[C@H](CC(C)C)N(C)C(=O)C[C@@H](C)NC(=O)[C@H](CC(C)C)N(C)C(=O)C(C)(C)NC(=O)[C@H](COCC(=O)NC(C)(C)C)N(C)C(=O)[C@H](CCc2ccc(C(F)(F)F)c(Cl)c2)NC(=O)CN(C)C(=O)[C@H](COCCC(C)C)N(C)C(=O)CN(C)C(=O)CN(C)C1=O` [Compound 1467] (cyclo([Aib][NMeL][d(β3hA)][NMeL]I[Sar][Sar][NMeS](Isopentyl)[Sar][hPhe(3-Cl-4-CF3)][NMeS](CH2CONHtBu))), with over 500 nM.
As for `CCCC[C@@H]1NC(=O)[C@H](Cc2cccc(I)c2)NC(=O)CN(C)C(=O)[C@H](Cc2ccc(Cl)cc2)N(C)C(=O)CN(C)C(=O)CN(C)C(=O)[C@H]([C@@H](C)CC)NC(=O)[C@H](CC(C)C)N(C)C(=O)C[C@@H](C(=O)N2CCCCC2)N(C)C(=O)[C@H](CC(C)C)NC(=O)[C@H](Cc2ccccc2OC)N(C)C1=O` [Compound 259] ([NMeL]I[Sar][Sar][NMePhe(4-Cl)][Sar][Phe(3-I)][Nle][NMePhe(2-OMe)]L[NMeD]-Piperidide; lactam N-11), the figure is over 500 nM; as for `CC[C@H](C)[C@@H]1NC(=O)[C@H](C)N(C)C(=O)C[C@@H](C(=O)N2CCCCC2)N(C)C(=O)[C@H](C(C)C)N(C)C(=O)C2(CCCC2)NC(=O)[C@@H]2CCCN2C(=O)[C@H](CCc2ccc(C(F)(F)F)c(Cl)c2)NC(=O)[C@H]2CCCN2C(=O)[C@H](Cc2ccc(F)cc2)N(C)C(=O)[C@@H]2CCCN2C(=O)CN(C)C1=O` [Compound 1725] ([NMeA]I[Sar]P[NMePhe(4-F)][dP][hPhe(3-Cl-4-CF3)]P[Ac5c][NMeV][NMeD]-Piperidide; lactam N-11), over 500 nM.
As for `CCCCN1CC(=O)N(C)[C@@H](CC2CCCCC2)C(=O)N(C)CC(=O)N[C@@H](CCc2ccc(C(F)(F)F)c(Cl)c2)C(=O)N2CCC[C@H]2C(=O)NC2(CCCC2)C(=O)N(C)[C@@H](C(C)C)C(=O)N[C@H](C)CC(=O)N(C)[C@@H](CC(C)C)C(=O)N[C@@H]([C@@H](C)CC)C(=O)N(C)CC1=O` [Compound 1033] (cyclo([Ac5c][NMeV][d(β3hA)][NMeL]I[Sar][NBuGly][NMeCha][Sar][hPhe(3-Cl-4-CF3)]P)), the figure is over 500 nM.
